Source: publication PMC9206510, “4′-Fluorouridine is an oral antiviral that blocks respiratory syncytial virus and SARS-CoV-2 replication” (Science (New York, N.y.), 2021)
Where two headings read alike, the source gives them in different places.

What was measured:
SDH-A = test: Quantitative immunocytochemistry on HAE cells, nuclear-encoded protein; conditions: read-out: IC50, steady-state level of nuclear-encoded SDH-A
[1] = mouse, in vivo
[2] = test system: paramyxovirus RdRP complex; format: cell-based, MeV, HPIV-3
[3] = ferret, in vivo, po
[4] = target: RdRP activity of Nipah virus (NiV) (Nipah virus, UniProt Q997F0); format: cell-based
[5] = Single oral dose pharmacokinetics in ferret plasma; conditions: in vivo
in vitro [6] = test: in vitro
[7] = test system: vesicular stomatitis virus (VSV); format: cell-based
in vitro [8] = conditions: human
recRSV-A2-L19F = format: in vivo, BALB/cJ mice
SARS-CoV-2 WA1 isolate = test: Virus yield reduction of SARS-CoV-2 WA1 shed apically from ALI HAE organoids; format: cell-based
Description: To test activity against SARS-CoV-2 in the human airway organoids, we first confirmed that the WA1 isolate replicated efficiently in HAEs of all donors tested (Fig. 5, A to C, and fig. S15).
Fig. 5. Efficacy of 4′-FlU against SARS-CoV-2 replication in HAE organoids. (A) Multicycle growth curve of SARS-CoV-2 WA1 isolate on ALI HAE from two donors. Shed virus was harvested daily and titered by plaque assay (n = 3). (B and C) Confocal microscopy of ALI HAE cells from “F1” donor mock-infected (B) or infected (C) with SARS-CoV-2 WA1 isolate, at 3 days post-infection. SARS-CoV-2 infected cells, goblet cells, and nuclei were stained with anti-SARS-CoV-2 N immunostaining, anti-MUC5AC immunostaining, and Hoechst 34580, pseudo-colored in red, green, and blue, respectively. z-stacks of 35 μm slices (1 μm thick) with 63× objective with oil immersion. […] Rare ciliated cells positive for N are represented in (F).

rabies virus (RabV) = format: cell-based
RSV RdRP complex = RSV RdRP complex (Human respiratory syncytial virus A, UniProt P28887); format: cell-based
measles virus (MeV) = test: Dose-response inhibition of recombinant mononegaviruses: MeV; format: cell-based
[9] = test system: RSV (recRSV A2-L19F and clinical RSV isolates); test: microbe, parasite or virus in culture; format: cell-based; conditions: human respiratory syncytial virus, HEp-2, read-out: half-maximal effective concentrations (EC50 values)
COX-I = test: Quantitative immunocytochemistry on HAE cells, mitochondrial-encoded protein; conditions: read-out: IC50, steady-state level of mitochondrial-encoded COX-I
[10] = test system: human parainfluenza virus type 3 (HPIV3); test: Dose-response inhibition of recombinant mononegaviruses: HPIV3; format: cell-based
[11] = test system: SARS-CoV-2 WA1 or VoC alpha, gamma, or delta; test: Ferret model of SARS-CoV-2 infection, oral treatment; format: in vivo
Sendai virus (SeV) = test: Dose-response inhibition of recombinant mononegaviruses: SeV; format: cell-based
[12] = human, 20 μM
SARS-CoV-2 = test: microbe, parasite or virus in culture; format: cell-based; conditions: Severe acute respiratory syndrome coronavirus 2
in vitro [13] = conditions: human; remark: listed apart in the source
[14] = test system: O=c1ccn(C2OC(F)(COP(=O)(O)OP(=O)(O)OP(=O)(O)O)C(O)C2O)c(=O)[nH]1; test: purified protein, by the assay type; conditions: other: Fig. 2D, Michaelis-Menten model
[15] = WA1, once-daily oral 20 mg/kg from 12 hours after infection, within 12 hours of treatment onset

Compound: O=c1ccn([C@@H]2O[C@](F)(CO)[C@@H](O)[C@H]2O)c(=O)[nH]1 [4′-FlU, 4′-fluorouridine]
- IC50 (SDH-A): 273 µM
- effect on the hematopoietic system (blood analysis) [1]: no antiproliferative effect
- RdRP complex activity in minireplicon [2]: inhibited
- overall exposure ([3]; 15 mg/kg): 154 ± 27.6 nmol·h/mL
- overall exposure ([3]; 50 mg/kg): 413.1 ± 78.1 nmol·h/mL
- RdRP activity in NiV minireplicon reporter assay [4]: efficiently inhibited
- Cmax ([5]; 15 mg/kg): 34.8 µM
- Cmax ([5]; 50 mg/kg): 63.3 µM
- CC50 (in vitro [6]): 250 µM
- active concentrations [7]: submicromolar
- CC50 (in vitro [8]): 169 µM
- bioluminescence intensity in lungs (IVIS) (recRSV-A2-L19F; mouse, in vivo): considerable reduction
- lung virus burden compared with vehicle-treated animals (recRSV-A2-L19F; mouse, in vivo): statistically significant reduction
- lung virus load compared with vehicle-treated animals (recRSV-A2-L19F; mouse, in vivo): statistically significant reduction
- reduction in lung virus load (recRSV-A2-L19F; mouse, in vivo, po, 5 mg/kg): nearly two orders of magnitude
- therapeutic window (time of treatment start after infection) (recRSV-A2-L19F; requiring reduction of lung virus load of at least one order of magnitude): 24 h
- effect of twice-daily dosing regimen on efficacy (recRSV-A2-L19F; versus once-daily oral dosing): did not significantly enhance efficacy
- SARS-CoV-2 nucleocapsid protein in epithelium by confocal microscopy (SARS-CoV-2 WA1 isolate; 50 μM 4′-FlU): largely devoid
- maximal effect size, reduction of apical virus shedding (SARS-CoV-2 WA1 isolate; 50 μM basolateral 4′-FlU): approximately two orders of magnitude
- active concentrations (rabies virus (RabV)): submicromolar
- RdRP complex activity in minireplicon (RSV RdRP complex): inhibited
- active concentrations (measles virus (MeV)): submicromolar
- EC50 [9]: 610 to 1200 nM
- IC50 (COX-I): 147 µM
- active concentrations [10]: submicromolar
- virus burden in nasal lavages ([11]; VoC alpha, gamma, delta, 36 to 48 hours after onset of oral treatment): below the level of detection
- reduction of virus burden in nasal lavages [11, 15]: approximately three orders of magnitude
- virus burden in nasal lavages [11, 15]: < 50 PFU/ml
- time of treatment until shedding of infectious particles ceased completely ([11]; all animals, 3 days post-infection): 2.5 days
- active concentrations (Sendai virus (SeV)): submicromolar
- intracellular level ([12]; 1 h): 3.42 nmol/million cells
- EC50 (SARS-CoV-2): 200 to 600 nM

Compound: O=c1ccn(C2OC(F)(COP(=O)(O)OP(=O)(O)OP(=O)(O)O)C(O)C2O)c(=O)[nH]1 (stereo not drawn) [4′-FlU-TP]
- half-life at 20 μM (in vitro [13]): 582 min
- intracellular concentration at peak ([12]; 4 h): 10.38 nmol/million cells
- intracellular concentration at plateau ([12]; 24 h): 1.31 nmol/million cells

Compound: recombinant RSV RdRP complexes (L and P proteins) (Human respiratory syncytial virus A2)
- Km [14]: 24.9 µM
